The results in this text go back to patent publication US6703362B1, “Random peptides that bind to gastro-intestinal tract (GIT) transport receptors and related methods” (Cytogen Corporation, priority 1997, dated 2004).

This test relates to P100 membrane fractions derived from Caco-2 cells. In words: Dansylated peptide ELISA: relative binding of PAX2 and HAX42 peptides to P100 (ratio to ZElan021). Conditions: ratio to ZElan021 = 1.00. As to the method:
The peptides and proteins were analyzed by a dansylated peptide ELISA method in which 96 well plates were coated overnight at 4° C. with 100 μl/well coating protein (normally 100 μg/ml P100 membrane fraction) in 0.05M carbonate buffer pH9.6. Nonspecific binding was blocked using 200 μl/well, 2% Marvel/PBS for 2 hours at 37° C. prior to incubation with dansylated peptides. The plates were washed three times with PBS/0.05% Tween 20 and after each subsequent incubation step. […] A buffer blank control was included to ensure that background binding to plastic was not due to the antibodies used in the assay system. […] The plates were then incubated with an anti-mouse X-HRP conjugated antibody (Southern Biotech 1060-05) at a 1:10,000 dilution in blocking solution, 100 μl/well for 1 hour at room temperature. Plates were developed using 75 μl/well Bionostics TMB substrate and incubated for approximately 10 minutes. The developing reaction was stopped using Bionostics Red Stop solution (25 μl/well), and the optical density of the plates was read at 650nm.
On the technique in general: ELISA stands for enzyme-linked immunosorbent assay.

The mark [1] stands for this setting: HAX42 peptides, first 50 μg/ml column.
Setting [2] is: HAX42 peptides, second 50 μg/ml column.
[3] abbreviates: PAX2 peptides, first 20 μg/ml column.
Where [4] appears, read: PAX2 peptides, first 50 μg/ml column.
[5] abbreviates: PAX2 peptides, second 20 μg/ml column.
Setting [6] is: PAX2 peptides, second 50 μg/ml column.

Peptide text beside a SMILES is read from it. * marks the point of attachment. Dansyl = CN(C)c1cccc2c(S(=O)(=O)*)cccc12

`CC[C@H](C)[C@H](NC(=O)[C@H](C)NC(=O)[C@H](CO)NC(=O)[C@@H]1CCCN1C(=O)[C@H](CCCNC(=N)N)NC(=O)[C@H](CCCNC(=N)N)NC(=O)[C@H](CC(N)=O)NC(=O)[C@H](Cc1ccccc1)NC(=O)[C@@H](NC(=O)[C@H](CCCCN)NC(=O)[C@H](CCCNC(=N)N)NC(=O)CNC(=O)[C@@H](NC(=O)[C@H](CO)NC(=O)[C@H](CC(N)=O)NC(=O)CNC(=O)[C@H](CC(N)=O)NC(=O)CNC(=O)[C@H](CS)NC(=O)[C@H](CS)NC(=O)[C@H](CC(N)=O)NC(=O)[C@H](Cc1ccc(O)cc1)NC(=O)[C@H](CC(=O)O)NC(=O)CNC(=O)[C@@H]1CCCN1C(=O)[C@@H](N)CCCCNS(=O)(=O)c1cccc2c(N(C)C)cccc12)[C@@H](C)O)C(C)C)C(=O)N1CCC[C@H]1C(=O)N[C@H](C(N)=O)[C@@H](C)O` [ZElan072] (H-K(Dansyl)PGDYNCCGNGNSTGRKVFNRRPSAIPT-NH2): where the note is “HAX42 peptides”, the “Binding value at 20 μg/ml” value came to 0.83. In addition, the “Binding value at 50 μg/ml” value runs as follows: under setting [1], 0.61; under setting [2], 0.88.
As for `C[C@H](NC(=O)[C@H](CC(N)=O)NC(=O)[C@@H](NC(=O)[C@@H](N)CCCCNS(=O)(=O)c1cccc2c(N(C)C)cccc12)[C@@H](C)O)C(=O)N[C@@H](CCCCN)C(=O)N[C@@H](Cc1c[nH]cn1)C(=O)N[C@@H](CO)C(=O)N[C@@H](CO)C(=O)N[C@@H](Cc1c[nH]cn1)C(=O)N[C@@H](CC(N)=O)C(N)=O` [ZElan055] (H-K(Dansyl)TNAKHSSHN-NH2), the “Binding value at 20 μg/ml” value under setting [3] was 0.99 and the “Binding value at 20 μg/ml” value under setting [5] is reported as 0.73. For the same compound, the “Binding value at 50 μg/ml” value stood at 1.10 under setting [4] and 0.59 under setting [6].
`CC(C)C[C@H](NC(=O)[C@H](CCCNC(=N)N)NC(=O)[C@H](CO)NC(=O)[C@@H](NC(=O)[C@H](CCCCN)NC(=O)[C@H](CC(N)=O)NC(=O)[C@H](CCCNC(=N)N)NC(=O)[C@@H](NC(=O)[C@H](CC(N)=O)NC(=O)[C@H](CCCNC(=N)N)NC(=O)[C@@H](N)CCCCNS(=O)(=O)c1cccc2c(N(C)C)cccc12)[C@@H](C)O)[C@@H](C)O)C(=O)N[C@@H](CO)C(=O)N[C@@H](C)C(=O)N[C@@H](CC(N)=O)C(=O)N1CCC[C@H]1C(=O)N[C@@H](Cc1c[nH]cn1)C(=O)N[C@@H](CCCNC(=N)N)C(=O)N[C@@H](CO)C(=O)N[C@@H](Cc1c[nH]cn1)C(=O)N[C@@H](CCCNC(=N)N)C(N)=O` [ZElan084, reference compound] (H-K(Dansyl)RNTRNKTSRLSANPHRSHR-NH2): the “Binding value at 20 μg/ml” value runs as follows: under setting [3], 1.06; under setting [5], 0.93. Besides, the “Binding value at 50 μg/ml” value worked out at 1.16 under setting [4] and 0.77 under setting [6].
In the same order, the values of `CC(C)C[C@H](NC(=O)[C@H](CCCNC(=N)N)NC(=O)[C@H](CCCNC(=N)N)NC(=O)[C@@H](N)CCCCNS(=O)(=O)c1cccc2c(N(C)C)cccc12)C(=O)N[C@@H](CCCNC(=N)N)C(=O)N[C@H](C(=O)N[C@@H](CCCNC(=N)N)C(=O)N[C@@H](CO)C(=O)N[C@@H](CCCNC(=N)N)C(=O)N1CCC[C@H]1C(=O)N[C@@H](CC(N)=O)C(N)=O)[C@@H](C)O` [ZElan056] (H-K(Dansyl)RRLRTRSRPN-NH2) are 0.00, 0.16, 0.21 and 0.21.
For the compound `CC[C@H](C)[C@H](NC(=O)[C@H](C)NC(=O)[C@H](CO)NC(=O)[C@@H]1CCCN1C(=O)[C@H](CCCNC(=N)N)NC(=O)[C@H](CCCNC(=N)N)NC(=O)[C@H](CCCNC(=N)N)NC(=O)[C@H](CC(N)=O)NC(=O)[C@H](Cc1ccccc1)NC(=O)[C@@H](NC(=O)[C@H](CCCCN)NC(=O)[C@H](CCCNC(=N)N)NC(=O)CNC(=O)[C@@H](NC(=O)[C@H](CO)NC(=O)[C@H](CC(N)=O)NC(=O)CNC(=O)[C@H](CC(N)=O)NC(=O)CNC(=O)[C@H](CS)NC(=O)[C@H](CS)NC(=O)[C@H](CC(N)=O)NC(=O)[C@H](Cc1ccc(O)cc1)NC(=O)[C@H](CC(=O)O)NC(=O)CNC(=O)[C@@H](N)CCCCNS(=O)(=O)c1cccc2c(N(C)C)cccc12)[C@@H](C)O)C(C)C)C(=O)N1CCC[C@H]1C(=O)N[C@H](C(N)=O)[C@@H](C)O` [ZElan061] (H-K(Dansyl)GDYNCCGNGNSTGRKVFNRRRPSAIPT-NH2), where the note is “HAX42 peptides”, the “Binding value at 20 μg/ml” value was 0.20. The “Binding value at 50 μg/ml” value is, setting by setting: under setting [1], 0.60; under setting [2], 0.38.
Taken in the same sequence, the figures for `CN(C)c1cccc2c(S(=O)(=O)NCCCC[C@H](N)C(=O)N[C@@H](CC(N)=O)C(=O)N[C@@H](CCCNC(=N)N)C(=O)N[C@@H](CCCNC(=N)N)C(=O)N[C@@H](CCCNC(=N)N)C(=O)N3CCC[C@H]3C(=O)N[C@@H](CO)C(N)=O)cccc12` [ZElan067, H2N—K(dns)NRRRPS—CONH2] (H-K(Dansyl)NRRRPS-NH2) were 0.08, 0.52 and 0.40.
In the case of `CC(C)C[C@H](NC(=O)[C@H](CCCNC(=N)N)NC(=O)[C@H](CCCNC(=N)N)NC(=O)[C@@H](N)CCCCNS(=O)(=O)c1cccc2c(N(C)C)cccc12)C(=O)N[C@@H](CCCNC(=N)N)C(=O)N[C@H](C(=O)N[C@@H](CCCNC(=N)N)C(=O)N[C@@H](CO)C(=O)N[C@@H](CCCNC(=N)N)C(N)=O)[C@@H](C)O` [ZElan057] (H-K(Dansyl)RRLRTRSR-NH2), the “Binding value at 20 μg/ml” value under setting [3] worked out at 0.08. Besides, the “Binding value at 50 μg/ml” value is, setting by setting: under setting [4], 0.56; under setting [6], 0.25.
`CC(C)C[C@H](NC(=O)[C@H](C)NC(=O)[C@H](Cc1c[nH]cn1)NC(=O)[C@H](CC(=O)O)NC(=O)[C@H](CO)NC(=O)[C@@H](N)CCCCNS(=O)(=O)c1cccc2c(N(C)C)cccc12)C(=O)NCC(=O)N[C@H](C(=O)N[C@@H](CC(N)=O)C(=O)N[C@@H](CC(C)C)C(=O)N[C@@H](CCCNC(=N)N)C(=O)N[C@@H](CO)C(=O)N[C@@H](CC(=O)O)C(=O)N[C@@H](CC(N)=O)C(=O)N[C@@H](C)C(=O)N[C@@H](CCCCN)C(=O)N[C@@H](CCC(=O)O)C(=O)N1CCC[C@H]1C(=O)NCC(=O)N[C@@H](CC(=O)O)C(=O)N[C@@H](Cc1ccc(O)cc1)C(=O)N[C@@H](CC(N)=O)C(=O)N[C@@H](CS)C(=O)N[C@@H](CS)C(=O)NCC(=O)N[C@@H](CC(N)=O)C(=O)NCC(=O)N[C@@H](CC(N)=O)C(=O)N[C@@H](CO)C(=O)N[C@H](C(N)=O)[C@@H](C)O)[C@@H](C)O` [ZElan070] (H-K(Dansyl)SDHALGTNLRSDNAKEPGDYNCCGNGNST-NH2): the “Binding value at 20 μg/ml” value (HAX42 peptides) came out at 0.59. Also, the “Binding value at 50 μg/ml” value runs as follows: under setting [1], 0.97; under setting [2], 0.39.
With `CC(C)C[C@H](NC(=O)[C@H](CCCNC(=N)N)NC(=O)[C@H](CCCNC(=N)N)NC(=O)[C@H](CC(N)=O)NC(=O)[C@H](Cc1c[nH]cn1)NC(=O)[C@H](CO)NC(=O)[C@H](CO)NC(=O)[C@@H](N)CCCCNS(=O)(=O)c1cccc2c(N(C)C)cccc12)C(=O)N[C@@H](CCCNC(=N)N)C(=O)N[C@@H](C)C(=O)N[C@@H](CCCNC(=N)N)C(N)=O` [ZElan081] (H-K(Dansyl)SSHNRRLRAR-NH2), the “Binding value at 20 μg/ml” value under setting [3] worked out at 0.01. The “Binding value at 50 μg/ml” value under setting [4] amounted to 0.89 and the “Binding value at 50 μg/ml” value under setting [6] is listed as 0.47.
As for `CC(C)C[C@H](NC(=O)[C@H](CCCNC(=N)N)NC(=O)[C@H](CCCNC(=N)N)NC(=O)[C@H](CC(N)=O)NC(=O)[C@H](Cc1c[nH]cn1)NC(=O)[C@H](CO)NC(=O)[C@H](CO)NC(=O)[C@@H](N)CCCCNS(=O)(=O)c1cccc2c(N(C)C)cccc12)C(=O)N[C@@H](CCCNC(=N)N)C(=O)N[C@H](C(=O)N[C@@H](C)C(N)=O)[C@@H](C)O` [ZElan082] (H-K(Dansyl)SSHNRRLRTA-NH2), under setting [3], the “Binding value at 20 μg/ml” value is given as 0.00. The “Binding value at 50 μg/ml” value runs as follows: under setting [4], 0.92; under setting [6], 0.40.
With `CC(C)C[C@H](NC(=O)[C@H](CCCNC(=N)N)NC(=O)[C@H](CCCNC(=N)N)NC(=O)[C@H](C)NC(=O)[C@H](Cc1c[nH]cn1)NC(=O)[C@H](CO)NC(=O)[C@H](CO)NC(=O)[C@@H](N)CCCCNS(=O)(=O)c1cccc2c(N(C)C)cccc12)C(=O)N[C@@H](CCCNC(=N)N)C(=O)N[C@H](C(=O)N[C@@H](CCCNC(=N)N)C(N)=O)[C@@H](C)O` [ZElan076] (H-K(Dansyl)SSHARRLRTR-NH2), the “Binding value at 50 μg/ml (Jackson Ab)” value (PAX2 peptides) was found to be 0.60. For the same compound, the “Binding value at 50 μg/ml (Southern Ab)” value (PAX2 peptides) is listed as 0.42. Besides, the “Binding value at 20 μg/ml” value under setting [3] worked out at 0.08. Further, the “Binding value at 50 μg/ml” value by setting is: under setting [4], 1.00; under setting [6], 0.41.
Taken in the same sequence, the figures for `CC(C)C[C@H](NC(=O)[C@H](CCCNC(=N)N)NC(=O)[C@H](CCCNC(=N)N)NC(=O)[C@H](CC(N)=O)NC(=O)[C@H](Cc1c[nH]cn1)NC(=O)[C@H](C)NC(=O)[C@H](CO)NC(=O)[C@@H](N)CCCCNS(=O)(=O)c1cccc2c(N(C)C)cccc12)C(=O)N[C@@H](CCCNC(=N)N)C(=O)N[C@H](C(=O)N[C@@H](CCCNC(=N)N)C(N)=O)[C@@H](C)O` [ZElan074] (H-K(Dansyl)SAHNRRLRTR-NH2) were 0.71, 0.48, 0.06, 0.82 and 0.52.
